Values of other authors, collected in US20190069585A1, “Compositions of micronutrients and phytochemicals for optimal human health” (priority 2017, published 2019).

Conditions: consumed orally by humans

For `N[C@@H](CCC(=O)N[C@@H](CS)C(=O)NCC(=O)O)C(=O)O` [glutathione], the “plasma levels of glutathione” value is listed as “do not significantly increase”.
